The record followed here is PMC6156508, “GA-Hecate antiviral properties on HCV whole cycle represent a new antiviral class and open the door for the development of broad spectrum antivirals” (Scientific Reports, 2018).

Molecules are shown by their SMILES. Where a SMILES comes first, the peptide text is derived from it. The star is where a group is joined. Galloyl = O=C(c1cc(O)c(O)c(O)c1)*

The test system of series [1] is JFH-1-infected Huh-7.5 cells. As to the kind of experiment: HCV release/assembly evaluation (qPCR intra/extracellular HCV RNA). The series is classed as cell-based, hepatitis C virus. As to conditions: 24 h treatment; 5, 10 and 20 μM, not dose-dependent. The procedure: Figure 6 GA-Hecate effect on HCV Release and infectivity. (A) HCV-infected Huh-7.5 cells were treated for 24 h with GA-Hecate. RNA was isolated and summited to qPCR for HCV 5′ UTR. Intracellular HCV expression was normalized by GAPDH, and extracellular HCV expression was calculated by absolute quantification. The difference between the intra and extracellular RNA expression represents the HCV release. Bars represent triplicate samples of three independent assays. Naringenin (200 μM) was used as a positive control of HCV release inhibition and water was a negative control of HCV release inhibition. ^aP < 0.001 vs Control (−), intracellular. ^bP < 0.001 vs Control (−), extracellular. F = 22.58, df (row factor) = 4. (B) Infectivity. HCV-infected Huh-7.5 cells were treated for 24 h with GA-Hecate, and then the supernatant was collected and used to infect naïve Huh-7.5 cells. The capacity of HCVcc particles to generate a new infection after GA-Hecate treatment is represented by the bars. […]
JFH-1-infected Huh-7.5 cells were used to evaluate the GA-Hecate effect on virus release/assembly. […] After treatment, the intracellular and extracellular RNA content was isolated following the TRIzol reagent protocol and quantified by qPCR of the HCV 5′ UTR region (forward: 5′ CGGGAGAGCCATAGTGG; reverse, 5′ […]; probe: 5′-FAM-[…]-TAMRA-3) using TaqMan® Universal PCR Master Mix (Thermo Scientific, CA, USA).
A general note: Real-time PCR tracks product formation cycle by cycle.

Series [2] relates to J6/JFH-1-infected Huh-7.5 cells. The series is described as follows: Apoptosis analysis (active caspase-3 staining). Type of series: cell-based, human. The following applies: 1.25-40 μM; 48 and 72 h p.t. The procedure:
Apoptosis and Necrosis analysis
The ability of GA-Hecate inducing cell death by necrosis and apoptosis was assessed in 48 and 72h post-treatment (p.t) at concentrations: 1.25; 2.5; 5; 10; 20 and 40 μM. For necrosis evaluation, cells were stained using Propidium Iodide at […], which was incubated with the cells 15 minutes prior fixation. Subsequently, cells were fixed using paraformaldehyde 4% in PBS (PFA 4%) for 15 minutes and nuclei stained using DAPI 1 μg/mL for 5 minutes. For apoptosis evaluation, cells were fixed using PFA 4% during 15 minutes, permeabilized using Triton X- 100 (Sigma) 0.1% in PBS and stained using anti-Active Caspase 3 antibody (host: Rabbit) (1:200 in BSA 1% in PBS) (Abcam 13847) for 2h. Then cells were rinsed using PBS and stained using anti-rabbit AlexaFluor 594 (1:500 in BSA 1% PBS) (Thermo Scientific A21207) during 2h. Nuclei were stained using DAPI for 5 minutes. For both assays, cells were counted in 5 randomly chosen fields in duplicate. […]
Figure S2. Cell death mechanisms triggered by GA-Hecate 48h post-treatment in J6/JFH-1- infected Huh-7.5 cells. A) Apoptosis activation triggered by GA-Hecate was measured by Active Caspase-3 in treated cells. Caspase is artificially represented in green and nuclei were stained using DAPI 1µg/mL (blue). B) Necrosis assessment. […]

Series [3] relates to Huh-7.5 cells harboring SGR-JFH-1 Feo. As to the kind of experiment: MTT cytotoxicity in hepatocytes. The series is classed as cell-based, human. An excerpt:
Figure 2 Hecate and its derivative-peptide effects on subgenomic HCV genotype 2a replication and hepatotoxicity. (A) Hecate. (B) Lys- Hecate. (C) GA-Hecate. (D) GA2-Hecate. (E) Acetyl-Hecate. (F) Glu-Hecate. Luciferase assays report HCV replication and MTT assays report the viability of Huh-7.5 cells harboring SGR-JFH-1 Feo under peptide treatment. Water was used as a negative control of virus replication inhibition and cell death (Control (−)), and Cyclosporine A was used as a positive control for virus replication inhibition (Control (+)). Red dotted lines represent the arbitrary threshold of 80% cell viability, and blue dotted lines represent the maximum inhibition presented by Hecate at the maximum safe concentration. Bars represent triplicates of the three independent assays. ***P < 0.01 vs control (−).
Peptide cytotoxicity profiles were measured by the MTT [3-(4,5-dimethylthiazol- 2-yl)-2,5-diphenyl tetrazolium bromide] (Sigma–Aldrich) method. Twenty-four hours before treatment, 5 × 10^3 SGR-harboring cell lines (SGR-Feo-JFH-1 or S52/SG-neo) were cultured with supplemented DMEM in a 96-multi-well plate and incubated at 37 °C in a humidified 5% CO2 incubator. On the subsequent day, peptide-containing medium was added at the following final concentrations: 2.5, 5, 10 and 20 μM. The tested peptides were Hecate and its derivatives, which included the following: lysine addition (Lysine-Hecate/Lys-Hecate); one or two molecules of Gallic Acid (GA-Hecate and GA2-Hecate); one acetyl radical (Acetyl-Hecate) or Glutamic acid (Glu-Hecate). After 48 h of incubation, peptide-media was removed, and MTT at a final concentration of 1 mg/mL was added to the wells, incubated for 30 minutes and subsequently replaced by 100 μL of DMSO. Absorbance was measured at 562 nm, using a plate spectrophotometer (FLUOstar Omega/BMG LABTECH, Offenburg, BW, DE). Cell viability was calculated considering water-treated cells (peptides diluent) as a negative control. All experiments were performed in triplicate and in three independent replicates. Further assays were performed considering at least 80% viability of the treated cells.
GA-Hecate toxicity and viral inhibition profile in 24, 48 and 72h post-treatment in […]
GA-Hecate toxicity and viral inhibition capacity were evaluated at 24, 48 and 72h post-treatment. Tested concentrations were 1.25; 2.5; 5; 10; 20; and 40 µM. At the end of every incubation, cells were stained using MTT as previously described. Similarly, at every time point, treated cells were lysed using PLB and summited to Luminescence analysis as previously described. […]

Regarding `CC(C)C[C@H](NC(=O)[C@H](C)NC(=O)[C@H](CCCCN)NC(=O)[C@H](CCCCN)NC(=O)[C@H](CC(C)C)NC(=O)[C@H](C)NC(=O)[C@H](CCCCN)NC(=O)[C@H](CCCCN)NC(=O)[C@H](CC(C)C)NC(=O)[C@H](CCCCN)NC(=O)[C@H](CCCCN)NC(=O)[C@H](CC(C)C)NC(=O)[C@H](C)NC(=O)[C@H](CCCCN)NC(=O)[C@H](CCCCN)NC(=O)[C@H](CC(C)C)NC(=O)[C@H](C)NC(=O)[C@H](CCCCN)NC(=O)[C@H](CC(C)C)NC(=O)[C@H](C)NC(=O)[C@H](CC(C)C)NC(=O)[C@H](C)NC(=O)[C@H](Cc1ccccc1)NC(=O)c1cc(O)c(O)c(O)c1)C(N)=O` [GA-Hecate] (Galloyl-FALALKALKKALKKLKKALKKAL-NH2), in series [1], the “inhibition of virus release” value is on record as “approximately 50%”. Besides, the “apoptosis induction (active caspase-3)” value in series [2] was “no significate apoptosis induction in any tested time point or concentration”. For the same molecule, the cell toxicity entry in series [3] (1.25 µM, 72 h) is recorded as “no cell toxicity”. Further, the cell death in series [3] (20 μM) was 20%. In addition, the “CC50 (50% cytotoxic concentration)” value in series [3] (48 h incubation, SGR-Feo-JFH-1 Huh-7.5 cells, triplicate in three independent assays) amounted to 34.95 µM. For the same molecule, the “CC50 72 h post-treatment” value in series [3] (72 h, 1.25-40 µM) is on record as 19 µM. Also, in series [3] (arbitrary threshold of 80% cell viability, 48 h), the “maximum non-toxic (safe) concentration in hepatocytes” value turned out to be 20 µM.
